Data as given in publication PMC10066322 (Scientific Reports, 2023).

Columns and labels:
[1] = target: ACK1 (activated CDC42 kinase 1); conditions: cited from earlier work
[2] = system: hTR levels in Hela cells; test: hTR levels in Hela cells by RT-qPCR; format: cell-based, human; conditions: 50 µM, 2 days, RT-qPCR vs DMSO
Procedure: (§1) 48 h after transfection/drug treatment, cells were collected for either RNA or protein analysis.
Extracted total RNA was reverse transcribed using Mir-X miRNA first strand synthesis kit (Taraka, Cat # 638315) to make cDNA and qPCR was perfomred with iQ SYBR Green Supermix (BioRad, Cat. No. 1708880) with […] (forward primer) and […] (reverse primer) for hTR. The RNA levels were normalized using 5S rRNA as a housekeeping gene.

[3] = system: PARN activity in Hela cells; test: miR-21-5p levels in Hela cells by northern blotting (PARN inhibition in cells); format: cell-based, human; conditions: 2 days
Procedure: as §1
Total RNA was extracted from cell lysates using TriZol as per manufacturer’s protocol and DNAse treated. After quantification on Nanodrop, total RNA was separated on an acrylamide 7 M Urea gel. RNA was transferred to a nylon membrane (Nytran SPC, GE Healthcare) using semiwet transfer. After UV/EDC crosslinking, the blot was pre-hybridized and hybridized in PerfectHyb Plus Hybridization Buffer (Sigma Aldrich) at 42 °C. Northern probes have been previously described[11],[48]. After hybridization and washing in 2 × SSC 0.1% SDS wash buffer, blots were exposed to a cassette and imaged on a Typhoon FLA 9500 Phosphoimager. Band intensities were quantified using ImageJ and normalized to the U1 levels under each condition.

[4] = target: GCK (germinal center kinase); conditions: cited from earlier work
[5] = target: T1, PARN1-430 (Homo sapiens, UniProt O95453); test: Inhibition fluorescence assay (FAM-RNA / BHQ quencher deadenylase assay); format: biochemical
T1 construct: expression of the C-terminal truncated protein (1-430 aa of PARN) was soluble; His tag (from the pCold I vector); made in house; host or cells: E. coli Rosetta 2 DE
T1 sequence (O95453 1-430): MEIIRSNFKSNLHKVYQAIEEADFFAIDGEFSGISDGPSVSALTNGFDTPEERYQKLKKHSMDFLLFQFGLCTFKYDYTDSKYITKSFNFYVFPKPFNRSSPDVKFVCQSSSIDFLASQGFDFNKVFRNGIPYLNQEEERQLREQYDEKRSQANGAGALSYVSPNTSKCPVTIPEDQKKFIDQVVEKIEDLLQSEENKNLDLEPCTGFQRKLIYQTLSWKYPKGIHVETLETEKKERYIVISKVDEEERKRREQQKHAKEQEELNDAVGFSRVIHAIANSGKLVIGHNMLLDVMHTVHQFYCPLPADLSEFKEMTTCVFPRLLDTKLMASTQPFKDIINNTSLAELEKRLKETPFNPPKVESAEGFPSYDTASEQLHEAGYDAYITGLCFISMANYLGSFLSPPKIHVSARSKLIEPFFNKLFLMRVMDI
Procedure: To easily screen compounds for inhibition of PARN activity, we developed an assay in which fluorescence was used as the readout for monitoring PARN1-430’s activity (Fig. 3a). This assay was modeled on a similar assay developed for Caf1/CNOT7 deadenylase. In this assay, PARN1-430 was incubated with a 5′-fluorescently labeled oligoadenylated RNA. In the absence of deadenylation, this substrate RNA can effectively hybridize to a complementary DNA oligonucleotide with a quencher on its 3′ end leading to a loss of fluorescence (Fig. 3a). When the RNA substrate is deadenylated, the quenching oligonucleotide is no longer able to stably hybridize leading to an increase in fluorescence in the reaction.
Figure 3 Developing a fluorescence assay for PARN inhibition. (a) Cartoon depicting the inhibition fluorescence assay. Schematic diagram of the fluorescence-based deadenylase assay. The assay is based on a 5′ FAM-labelled RNA oligonucleotide substrate. After incubation of the substrate in the presence of PARN1-430, the reaction is stopped and a 3′ BHQ-labelled DNA oligonucleotide probe complementary to the RNA substrate is added. The fluorescence of intact substrate is quenched upon probe hybridization because of the proximity of the BHQ […]. In contrast, the BHQ-labelled probe cannot hybridize to the FAM-labelled reaction product allowing detection of FAM fluorescence. […] 2-way ANOVA, multiple comparisons test, average ± SD, n = 3 replicates. *P < 0.05, **P < 0.005, ***P < 0.001, ****P < 0.0001, n.s. was not indicated. […] Dotted-line represents RNA and RNA + Quencher data. One-way ANOVA, multiple comparisons test, average ± SD, n ≥ 3 replicates. *P < 0.05, **P < 0.005, ***P < 0.001, ****P < 0.0001, n.s. was not indicated. (d) PARN1-430 and PARNmut enzymatic activity measured at different time points. […] Dotted-line represents RNA and RNA + Quencher data. 2-way ANOVA, multiple comparisons test, average ± SD, n = 3 replicates. *P < 0.05, **P < 0.005, ***P < 0.001, ****P < 0.0001, n.s. was not indicated.
Quenched reaction was incubated at room temperature for 10–60 min and fluorescence was measured using Fluorescein wavelength measurement.

IC50 ([5]; GNF-7 on PARN1-430, 10 min pre-treatment, non-linear fit): 35 ± 15 µM | inhibitory effect on PARN1-430, fluorescence assay ([5]; among 15 docking compounds tested): strongest inhibitory effect | PARN inhibitor in vitro ([5]; computational docking compounds, fluorescence assay and gels, PARN1-430 pretreated with drug 10 min): Yes
Compound: Cc1ccc(Nc2ncc3c(n2)N(C)C(=O)N(c2cc(NC(=O)c4cccc(C(F)(F)F)c4)ccc2C)C3)cn1 [GNF-7]
IC50 [1]: 0.025 µM | hTR levels [2]: decreased | PARN inhibitor in cells ([3]; 50 μM): Yes | miR-21-5p levels compared to the controls ([3]; 50 µM, northern blotting, DMSO control): ~ 35% | IC50 [4]: 0.008 µM
